This assay has as its target T1, recombinant human serotonin receptor 5-HT2A (Homo sapiens, UniProt P28223).
T1 construct: expressed in transfected cells; method B: loaded with Ca2+ dye
As to the kind of experiment: 5-HT2A antagonist Ca2+ assay in CHO-K1 cells (method A aequorin luminescence / method B FLIPR fluorescence). It is filed as cell-based. Particulars: antagonist mode vs EC80 of reference agonist, method A or B, read-out: 5HT2A IC50. The source says:
The methods utilized to assess the inhibitory activity of compounds on recombinant human serotonin receptor 5-HT2A was based upon previously published approaches [Jerman J C, Brough S J, Gager T, Wood M, Coldwell M C, Smart D, Middlemiss D N. Pharmacological characterisation of human 5-HT2 receptor subtypes. European Journal of Pharmacology 2001 Feb. 23; 414(1):23-30; Le Poul E, Hisada S, Mizuguchi Y, Dupriez V J, Burgeon E, Detheux M. Adaptation of aequorin functional assay to high throughput screening. J Biomolecular Screening 2002 February; 7(1):57-65.] The 5-HT2A receptor signals through Gq-phospholipase signaling cascade, which leads to a transient increase in free intracellular […] concentration. Both 5-HT2A assay methods rely upon monitoring these changes in Ca^2+ concentration.
In method A [Le Poul E, Hisada S, Mizuguchi Y, Dupriez V J, Burgeon E, Detheux M. (2002)], CHO-K1 cells engineered to stably co-express both recombinant human 5-HT2A and mitochondrial apoaequorin are used. […] For agonist testing, 50 microliters of cell suspension is mixed with 50 microliters of a solution containing test compound or reference agonist in a 96-well standard geometry microtiter plate. The resulting emission of light was recorded using a Hamamatsu Functional Drug Screening System 6000 (FDSS 6000) luminometer. For antagonist testing, 100 microliters of the solution of reference agonist (to yield an agonist concentration, EC80, sufficient to cause the cells to generate an 80% maximal luminescence response in the absence of any antagonist) is injected into the mix of cells and test compound, 15 minutes after the first injection. The resulting emission of light is recorded using Hamamatsu FDSS 6000 luminometer. IC50 values are calculated (from compound concentration dependent inhibition of agonist-induced 5-HT2A-dependent light emission) by non-linear least squares regression of the data (percent inhibition) onto equation (1) above.
In method B [Jerman J C, Brough S J, Gager T, Wood M, Coldwell M C, Smart D, Middlemiss D N. (2001)], CHO-K1 cells which had been engineered to stably co-express recombinant human 5-HT2A are used in assay done similarly to method A. In method B, the cells are loaded with a fluorogenic Ca^2+ indicator dye by pre-incubation. Addition of the reference agonist serotonin causes a transient increase in fluorescence in a suspension of the loaded cells, which can be detected using the Molecular Devices fluorometric imaging plate reader (FLIPR), a high-throughput platform for 96-well cell-based assays. Addition of test compounds that are 5-HT2A antagonists, prior to the addition of the agonist (to yield an agonist concentration, EC80, sufficient to cause the cells to generate an 80% maximal fluorescence response in the absence of any antagonist), reduces the amount of fluorescence detected by the FLIPR upon agonist addition. IC50 values are calculated (from compound concentration dependent inhibition of agonist-induced 5-HT2A-dependent fluorescence) by non-linear least squares regression of the data (percent inhibition) onto equation (1) above.

Molecules are shown by their SMILES. A value given as a limit tells only on which side of the number the result lay.

T1 sequence (P28223 whole entry): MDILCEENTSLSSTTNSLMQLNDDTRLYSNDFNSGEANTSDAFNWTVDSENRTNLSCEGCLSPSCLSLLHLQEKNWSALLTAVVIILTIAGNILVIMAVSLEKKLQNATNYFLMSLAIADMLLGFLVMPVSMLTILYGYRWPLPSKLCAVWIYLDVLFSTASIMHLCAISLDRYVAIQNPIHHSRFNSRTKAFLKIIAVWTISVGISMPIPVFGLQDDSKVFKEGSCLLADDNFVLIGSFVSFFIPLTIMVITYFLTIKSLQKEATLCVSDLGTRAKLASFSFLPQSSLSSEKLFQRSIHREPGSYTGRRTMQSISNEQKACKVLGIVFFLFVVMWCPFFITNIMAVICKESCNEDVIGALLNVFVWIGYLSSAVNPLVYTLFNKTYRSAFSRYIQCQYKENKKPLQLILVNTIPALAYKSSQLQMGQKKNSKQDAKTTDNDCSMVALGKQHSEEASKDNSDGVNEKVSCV

On to `COc1ccc2c(c1)[C@@H](CN1C[C@@H]3CC[C@H]1CN3c1ccccc1)CC2` (single isomer, unassigned) [Compound 311], for which the IC50 is 0.01 µM. On to `COc1ccc2c(c1)[C@H](CN1C[C@@H]3CC[C@H]1CN3c1ccccc1)CC2` (single isomer, unassigned) [Compound 312], for which the IC50 was found to be 0.43 µM. Take `COc1ccc2c(c1)C(CN1C[C@H]3CC[C@@H]1CN3c1ccccc1)CC2` (single isomer, unassigned) [Compound 313]: the IC50 is greater than 10 µM.

Consider `COc1ccc2c(c1)C(CN1C[C@H]3CC[C@@H]1CN3c1ccccc1)CC2` (single isomer, unassigned) [Compound 314], for which the half-inhibitory concentration (IC50) was greater than 10 µM.

On to `COc1ccccc1OC1CCN(CC2Cc3ccccc3C2)[C@@H](C)C1` (single isomer, unassigned) [Example 148], for which the IC50 came to 1.44 µM.

Turning to `OC(CO[C@H]1CCc2ccccc21)CN1CCC(Oc2ccc(F)cc2)CC1` (stereo in doubt) [Example 237, (R)-1-(((S)-2,3-dihydro-1H-inden-1-yl)oxy)-3-(4-(4-fluorophenoxy)piperidin-1-yl)propan-2-ol], the IC50 was 0.6 µM. Take `Fc1ccc(O[C@@H]2CCN(CC3CCc4cnccc43)C2)cc1` (stereo partly drawn) [Example 1, 5-(((R)-3-(4-fluorophenoxy)pyrrolidin-1-yl)methyl)-6,7-dihydro-5H-cyclopenta[c]pyridine]: the concentration for half-maximal inhibition (IC50) is 2.3 µM. Take `Fc1ccc(O[C@H]2CCN(CC3CCc4cnccc43)C2)cc1` (stereo partly drawn) [Example 2, 5-(((S)-3-(4-fluorophenoxy)pyrrolidin-1-yl)methyl)-6,7-dihydro-5H-cyclopenta[c]pyridine]: the IC50 is 1.25 µM. Take `Fc1ccc(O[C@H]2CCN(CC3CCc4ncccc43)C2)cc1` (stereo partly drawn) [Example 4, 5-(((S)-3-(4-fluorophenoxy)pyrrolidin-1-yl)methyl)-6,7-dihydro-5H-cyclopenta[b]pyridine]: the IC50 turned out to be 1.45 µM.

Regarding `Fc1ccc(O[C@@H]2CCN(CC3CCc4ccncc43)C2)cc1` (stereo partly drawn) [Example 5, 7-(((R)-3-(4-fluorophenoxy)pyrrolidin-1-yl)methyl)-6,7-dihydro-5H-cyclopenta[c]pyridine], the IC50 amounted to 5.88 µM.

`Fc1ccc(O[C@H]2CCN(CC3CCc4ccncc43)C2)cc1` (stereo partly drawn) [Example 6, 7-(((S)-3-(4-fluorophenoxy)pyrrolidin-1-yl)methyl)-6,7-dihydro-5H-cyclopenta[c]pyridine]: the IC50 came out at 3 µM. With `Fc1ccc(O[C@@H]2CCN(CC3CCc4cccnc43)C2)cc1` (stereo partly drawn) [Example 7, 7-(((R)-3-(4-fluorophenoxy)pyrrolidin-1-yl)methyl)-6,7-dihydro-5H-cyclopenta[b]pyridine] the figure was 1.01 µM. With `COc1ccccc1O[C@@H]1CCN(CCN2CCc3ccccc3C2=O)C1` [Example 13, (R)-2-(2-(3-(2-methoxyphenoxy)pyrrolidin-1-yl)ethyl)-3,4-dihydroisoquinolin-1(2H)-one] the figure was 1.93 µM; with `COc1ccccc1O[C@H]1CCN(CCN2CCc3ccccc3C2=O)C1` [Example 14, (S)-2-(2-(3-(2-methoxyphenoxy)pyrrolidin-1-yl)ethyl)-3,4-dihydroisoquinolin-1(2H)-one], 7.47 µM. As for `O=C1c2ccccc2CCN1CCN1CC[C@@H](Oc2ccccn2)C1` [Example 15, (R)-2-(2-(3-(pyridin-2-yloxy)pyrrolidin-1-yl)ethyl)-3,4-dihydroisoquinolin-1(2H)-one], the IC50 was greater than 16.7 µM. With `O=C1c2ccccc2CCN1CCN1CC[C@H](Oc2ccccn2)C1` [Example 16, (S)-2-(2-(3-(pyridin-2-yloxy)pyrrolidin-1-yl)ethyl)-3,4-dihydroisoquinolin-1(2H)-one] the figure was 1.85 µM; with `COc1ccccc1O[C@@H]1CCN(CCN2CCc3ccccc3C2=O)[C@H]1C` [Example 17, 2-(2-((2S,3R)-3-(2-methoxyphenoxy)-2-methylpyrrolidin-1-yl)ethyl)-3,4-dihydroisoquinolin-1(2H)-one], 0.4 µM. `COc1ccccc1O[C@H]1CCN(CCN2CCc3ccccc3C2=O)[C@@H]1C` [Example 18, 2-(2-((2R,3S)-3-(2-methoxyphenoxy)-2-methylpyrrolidin-1-yl)ethyl)-3,4-dihydroisoquinolin-1(2H)-one]: the IC50 was determined as 0.02 µM. In the case of `COc1ccccc1O[C@H]1CCN(CCN2CCc3ccccc3C2=O)[C@H]1C` [Example 19, 2-(2-((2S,3S)-3-(2-methoxyphenoxy)-2-methylpyrrolidin-1-yl)ethyl)-3,4-dihydroisoquinolin-1(2H)-one] it was 0.56 µM. For `COc1ccccc1O[C@@H]1CCN(CCN2CCc3ccccc3C2=O)[C@@H]1C` [Example 20, 2-(2-((2R,3R)-3-(2-methoxyphenoxy)-2-methylpyrrolidin-1-yl)ethyl)-3,4-dihydroisoquinolin-1(2H)-one], the IC50 was 0.01 µM. With `COc1cccc(O[C@@H]2CCN(CCN3CCc4ccccc4C3=O)C2)c1` [Example 21, (R)-2-(2-(3-(3-methoxyphenoxy)pyrrolidin-1-yl)ethyl)-3,4-dihydroisoquinolin-1(2H)-one] the figure was 2.56 µM. Take `COc1cccc(O[C@H]2CCN(CCN3CCc4ccccc4C3=O)C2)c1` [Example 22, (S)-2-(2-(3-(3-methoxyphenoxy)pyrrolidin-1-yl)ethyl)-3,4-dihydroisoquinolin-1(2H)-one]: the IC50 stood at 2.34 µM. Turning to `O=C1c2ccccc2CCN1CCN1CC[C@@H](Oc2cccnc2)C1` [Example 23, (R)-2-(2-(3-(pyridin-3-yloxy)pyrrolidin-1-yl)ethyl)-3,4-dihydroisoquinolin-1(2H)-one], the IC50 is greater than 16.7 µM. For `O=C1c2ccccc2CCN1CCN1CC[C@H](Oc2cccnc2)C1` [Example 24, (S)-2-(2-(3-(pyridin-3-yloxy)pyrrolidin-1-yl)ethyl)-3,4-dihydroisoquinolin-1(2H)-one], the IC50 was greater than 16.7 µM. With `COc1ccc(O[C@@H]2CCN(CCN3CCc4ccccc4C3=O)C2)cc1` [Example 27, (R)-2-(2-(3-(4-methoxyphenoxy)pyrrolidin-1-yl)ethyl)-3,4-dihydroisoquinolin-1(2H)-one] the figure was 2.8 µM.

For the molecule `COc1ccc(O[C@H]2CCN(CCN3CCc4ccccc4C3=O)C2)cc1` [Example 28, (S)-2-(2-(3-(4-methoxyphenoxy)pyrrolidin-1-yl)ethyl)-3,4-dihydroisoquinolin-1(2H)-one], the IC50 came out at 10 µM. On to `O=C1c2ccccc2CCN1CCN1CC[C@@H](Oc2ccncc2)C1` [Example 29, (R)-2-(2-(3-(pyridin-4-yloxy)pyrrolidin-1-yl)ethyl)-3,4-dihydroisoquinolin-1(2H)-one], for which the IC50 was greater than 16.7 µM. As to `O=C1c2ccccc2CCN1CCN1CC[C@H](Oc2ccncc2)C1` [Example 30, (S)-2-(2-(3-(pyridin-4-yloxy)pyrrolidin-1-yl)ethyl)-3,4-dihydroisoquinolin-1(2H)-one], the IC50 is greater than 16.7 µM. Consider `N#Cc1ccc(O[C@@H]2CCN(CCN3CCc4ccccc4C3=O)C2)cc1` [Example 31, (R)-4-((1-(2-(1-oxo-3,4-dihydroisoquinolin-2(1H)-yl)ethyl)pyrrolidin-3-yl)oxy) benzonitrile], for which the IC50 was greater than 16.7 µM. In the case of `N#Cc1ccc(O[C@H]2CCN(CCN3CCc4ccccc4C3=O)C2)cc1` [Example 32, (S)-4-((1-(2-(1-oxo-3,4-dihydroisoquinolin-2(1H)-yl)ethyl)pyrrolidin-3-yl)oxy) benzonitrile] it was greater than 16.7 µM. Regarding `CC(CN1CCc2ccccc2C1=O)N1CC[C@@H](Oc2ccc(F)cc2)C1` (stereo partly drawn) [Example 33, 2-(2-((R)-3-(4-fluorophenoxy)pyrrolidin-1-yl)propyl)-3,4-dihydroisoquinolin-1(2H)-one], the IC50 was greater than 10 µM. In the case of `OC(CO[C@H]1CCc2ccccc21)CN1CC[C@@H](Oc2cccc(F)c2)C1` (stereo partly drawn) [Example 34, 1-(((S)-2,3-dihydro-1H-inden-1-yl)oxy)-3-((R)-3-(3-fluorophenoxy)pyrrolidin-1-yl)propan-2-ol] it was 4.66 µM; in that of `OC(CO[C@H]1CCc2ccccc21)CN1CC[C@H](Oc2cccc(F)c2)C1` (stereo partly drawn) [Example 35, 1-(((S)-2,3-dihydro-1H-inden-1-yl)oxy)-3-((S)-3-(3-fluorophenoxy)pyrrolidin-1-yl)propan-2-ol], 7.13 µM.

What is called IC50 is the point on the concentration scale where inhibition reaches its midpoint.

For the origin of these results see US11186564B2, “Dual NAV1.2/5HT2a inhibitors for treating CNS disorders” (Sunovion Pharmaceuticals Inc., priority 2016, dated 2021).
